The values that follow come from patent US10857154B2, “Pharmaceutical composition containing keratin 8 phosphorylation inhibitor for preventing or treating macular degeneration, and method for screening macular degeneration medicine” (priority 2016, dated 2020).

The structures appear in SMILES notation. Like-named read-outs stand apart in the source and are kept apart here.

In experiment [1] the test system is keratin 8 (K8) phosphorylation. The experiment is described as follows: Western blotting of P-ERK1/2 and P-K8 in paraquat-treated retinal pigment epithelial cells. It is filed as cell-based, human. As for the experimental part: In the bar graph analyzed from the image of western blotting, the expression levels of P-ERK and P-K8 were calculated (FIG. 2B).
In the bar graph analyzed from the image of western blotting, the expression levels of P-ERK and P-K8 were calculated (FIG. 4A).
(§1) The same procedures as in Example 3 were performed, and 10 μM gefitinib was used in lieu of 50 nM trametinib.

Experiment [2] concerns APRE-19 cells and human-tissue-derived RPE cells. The experiment is described as follows: P-K8 immunostaining: reorganization of K8 around the nucleus under paraquat oxidative stress. Format: cell-based.
Description: The ARPE-19 cells are cell lines that have been genetically engineered for infinite proliferation for experimental use. However, as the human-tissue-derived RPE cells were obtained by culturing RPE tissue isolated from the human eye without any genetic engineering they were used for experiments under conditions similar to those of human RPE.
Thereafter, P-K8 (green fluorescence) of the cells was immunostained (Abcam; ab32579). The nucleus was stained (Invitrogen; T3605) using TOPRO-3 (blue fluorescence) (FIG. 2C).
P-K8 (green fluorescence) of the cells was immunostained (FIG. 4B).
as §1

The test system is the same in experiment [3]. As to the kind of experiment: E-cadherin / vimentin immunostaining: epithelial-mesenchymal transition under paraquat oxidative stress. The conditions noted are these: for E-cadherin expression / vimentin filaments: APRE-19 and human-tissue-derived RPE cells. Format: cell-based. How it is done:
E-cadherin (green fluorescence) and vimentin (red fluorescence) in the cells were immunostained (cell signaling; 7832s). The nucleus was stained using TOPRO-3 (blue fluorescence) (FIG. 3A).
Thereafter, E-cadherin (green fluorescence) and vimentin (red fluorescence) in the cells were immunostained. The nucleus was visualized using TOPRO-3 (blue fluorescence) (FIG. 4C).
as §1

For another experiment, the system named is ARPE-19 cells. The experiment is described as follows: Cell motility using a Transwell insert. Format: cell-based, human. The conditions noted are these: 400 μM paraquat and 20 μM PD98059 for 36 hr, FIG. 3B. How it is done: Also, the cell motility was analyzed using a Transwell insert in ARPE-19 cells selectively treated with 400 μM paraquat and 20 μM PD98059 for 36 hr. As the migrated cells were stained with methylene blue it was confirmed by checking an image (FIG. 3B).

Another experiment relates to mouse retinal cells. The experiment is described as follows: NaIO3-induced retinal degeneration in mouse, ZO-1 immunohistochemical analysis. It is filed as in vivo. The conditions noted are these: 20 mg/kg NaIO3 intravenously, 10 mg/kg PD98059, sacrificed 2 weeks after administration, FIG. 3C. As for the experimental part:
7- to 9-week-old mouse retinal cells were subjected to immunohistochemical analysis (Abcam; ab59720) for a tight junction marker ZO-1 (green fluorescence). A saline-treated group was a control group with intravenous administration of 0.9% NaCl. A mouse group administered intravenously with 20 mg/kg of NaIO3 was selectively treated with 10 mg/kg of PD98059. Animal groups were sacrificed 2 weeks after intravenous administration. The fluorescence images were obtained through a confocal microscope (FIG. 3C).

[4] abbreviates: APRE-19 cells, 400 μM paraquat 24 hr, then 20 μM PD98059 24 hr, FIG. 2B.
Setting [5] is: 400 μM paraquat and 20 μM PD98059 for 48 hr, FIG. 3A.
Setting [6] is: 400 μM paraquat and 10 μM gefitinib for 48 hr, FIG. 5C.

As for `COc1cccc(-c2cc(=O)c3ccccc3o2)c1N` [PD98059], in experiment [1] (setting [4]), the “K8 phosphorylation due to oxidative stress (P-ERK and P-K8 expression levels)” value is “inhibited K8 phosphorylation”; the “expression of LC3 I/II, the autophagy marker” value is “not involved in the expression of LC3 I/II”. Further, in experiment [1] (APRE-19 cells, 400 μM paraquat 24 hr, then 20 μM PD98059 24 hr, compared to 10 μM SP600125, FIG. 2A), the “effect of inhibiting K8 phosphorylation due to oxidative stress (P-K8 expression level)” value is reported as “superior”. Besides, the “reorganization of K8 around the nucleus” value in experiment [2] (APRE-19 and human-tissue-derived RPE cells, 400 μM paraquat and 20 μM PD98059 for 36 hr, FIG. 2C) is “inhibited reorganization of K8 around the nucleus”. In experiment [3] (setting [5]), the epithelial-mesenchymal transition entry is “reduce epithelial-mesenchymal transition”, the E-cadherin expression result is reported as “recovered E-cadherin lost” and the vimentin filaments result is reported as “inhibited an increase in vimentin filaments”. Besides, the cell motility entry in the experiment on ARPE-19 cells is on record as “reduced increased cell motility”. Also, the “degeneration of retinal cells (tight junction marker ZO-1)” value with mouse retinal cells was “restored the degeneration of retinal cells”.

In the case of `COc1cc2ncnc(Nc3ccc(F)c(Cl)c3)c2cc1OCCCN1CCOCC1` [gefitinib], in experiment [1], the “K8 phosphorylation due to oxidative stress (P-ERK and P-K8 expression levels)” value is “inhibited phosphorylation of K8”. In addition, the “reorganization of K8 around the nucleus” value in experiment [2] (APRE-19 cells, 400 μM paraquat and 10 μM gefitinib for 36 hr, FIG. 5B) is listed as “inhibited reorganization of K8 around the nucleus”. Further, in experiment [3] (setting [6]), the epithelial-mesenchymal transition result was “reduce epithelial-mesenchymal transition”, the E-cadherin expression entry is reported as “recovered E-cadherin lost” and the vimentin filaments result was “inhibited the increase in vimentin filaments”.
